Data on eight compounds can be found in article PMC7921063, “The Effects of Genetic Mutations and Drugs on the Activity of the Thiamine Transporter, SLC19A2” (The AAPS Journal, 2021).

For data set [1] the following is noted: fraction unbound in plasma, human; ref Table I (PMIDs, package inserts); cited from earlier work.
On the set-up of data set [2]: method as in Reference column of Table I (PMIDs, package inserts). Conditions: maximum plasma concentration, human; ref Table I (PMIDs, package inserts); cited from earlier work.
The target of data set [3] is T1, SLC19A2 (Homo sapiens, UniProt O60779).
T1 sequence (O60779 1-497): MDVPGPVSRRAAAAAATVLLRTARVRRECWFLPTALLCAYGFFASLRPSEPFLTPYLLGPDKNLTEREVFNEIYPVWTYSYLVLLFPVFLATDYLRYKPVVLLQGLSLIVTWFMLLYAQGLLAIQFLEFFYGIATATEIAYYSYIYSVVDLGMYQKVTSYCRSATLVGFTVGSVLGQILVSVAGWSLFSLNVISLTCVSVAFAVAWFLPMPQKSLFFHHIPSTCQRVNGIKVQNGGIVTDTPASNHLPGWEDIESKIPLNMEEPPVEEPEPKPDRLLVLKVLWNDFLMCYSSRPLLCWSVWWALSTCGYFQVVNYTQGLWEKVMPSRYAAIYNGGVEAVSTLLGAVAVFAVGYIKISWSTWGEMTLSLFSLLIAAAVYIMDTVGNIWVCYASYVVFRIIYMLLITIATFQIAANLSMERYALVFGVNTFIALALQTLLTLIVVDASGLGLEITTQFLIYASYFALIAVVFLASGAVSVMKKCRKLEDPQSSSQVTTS
The data set can be described thus: IC50 assays for inhibition of SLC19A2-mediated thiamine uptake. It counts as cell-based. The following applies: inhibitor 0 to 1 mM, HEK293. The arrangement: host or cells: HEK293, stably overexpressing SLC19A2 and transiently transfected with a further 500 ng wild-type plasmid. The method, then: (§1) Plasmids encoding wild-type SLC19A2 and three TRMA-associated variants were generated by Genscript Inc. (Piscataway, USA). Methods for generation of stably overexpressing SLC19A2 cell lines and uptake studies have been previously described ([11], [12]). Inhibition and kinetic studies were performed in SLC19A2-overexpressing stable HEK293 cells transiently transfected with an additional 500 ng of SLC19A2 wild-type plasmid.
(§2) Prescription drugs associated with MA ([2]) in addition to others belonging to listed drug classes (e.g., proton-pump inhibitors; 63 compounds total) were screened in triplicate at 1 mM to evaluate inhibitory activity against SLC19A2. The screen was performed using [^3H]-thiamine (25 nM). Each plate contained control wells exposed for 10 min (within linear range, Supplemental Figure 1) to [^3H]-thiamine (positive control), [^3H]-thiamine plus 1 mM of amprolium (negative control), and [^3H]-thiamine plus 1 mM of screened drug (3 replicates per drug). Methods have been previously described ([11]). SLC19A2 inhibitors were defined as compounds that decreased SLC19A2-mediated thiamine uptake by 50% or more at 1 mM. For compounds that met this definition, inhibition assays were conducted and IC50 values were calculated by nonlinear fitting using GraphPad Prism 7 (La Jolla, CA) ([11]).
Fig. 4 Drug screen and potency studies against SLC19A2-mediated thiamine uptake. In the screen, SLC19A2 inhibitors were defined as compounds that inhibit at least 50% of thiamine uptake compared to the positive control. The positive control was thiamine uptake in the absence of inhibitor. Out of the 63 drugs screened, ten reached that threshold. Of the ten drugs, three (fedratinib, amprolium, and trimethoprim) have IC50 values published in literature (a). […] Figures representative of 3 independent experiments except for pantoprazole

Data set [4] addresses T1, SLC19A2. The data set is described as follows: SLC19A2 inhibitor screen: [3H]-thiamine uptake in SLC19A2-overexpressing HEK293 cells. Also noted: host or cells: HEK293, stably overexpressing SLC19A2 and transiently transfected with a further 500 ng wild-type plasmid. The following applies: HEK293, 10 min; for remaining activity at 1000 µM: drug 1 mM, [3H]-thiamine 25 nM, 10 min, HEK293 cells expressing SLC19A2, relative to uptake without inhibitor, read-out: Average % SLC19A2 thiamine uptake; for inhibition at 1000 µM: at 1 mM, read-out: reduction in thiamine transport (designated SLC19A2 inhibitor). It counts as cell-based. Here is the method: as §1
as §2, with “The screen was performed using [^3H]-thiamine (25 nM).” left out
Fig. 3 Common mechanisms of drug-induced megaloblastic anemia and SLC19A2 inhibitor drug screen workflow. A list of drugs associated with inducing megaloblastic anemia through various mechanisms was compiled (a). Each drug was dissolved to a final concentration of 1 mM in buffer containing radiolabeled [^3H] thiamine and exposed to HEK293 cells expressing SLC19A2 wild-type transporter for 10 min.

The target in a further data set is T2, wild-type SLC19A2 (Homo sapiens, UniProt O60779).
T2 construct: host or cells: HEK293, transiently transfected
T2 sequence (O60779 1-497): T1 sequence (O60779 1-497)
The data set can be described thus: Thiamine transport by wild-type SLC19A2 in transiently transfected HEK293 cells with inhibitor. It counts as cell-based. Conditions: 200 μM inhibitor. Here is the method: as §1
Fig. 2 Function and expression of TRMA-associated SLC19A2 variants, and the effects of two prescription drugs on SLC19A2-mediated thiamine uptake. […] Figures representative of 3 separate experiments (a). Membrane localization of GFP-tagged SLC19A2 variants. To determine TRMA variant membrane expression, constructs encoding SLC19A2 wild-type and TRMA variants were GFP-tagged and transfected in HEK293 cells. Nuclei were stained with Hoechst 33342 dye (blue) and cells were visualized with confocal microscopy (b)

Another data set concerns the target human TPK1 (Homo sapiens, UniProt Q9H3S4). The data set can be described thus: TPK1 enzyme assay (AMP-Glo luminescence), substrate test. It counts as biochemical. The following applies: 1 mM compound, 15 μg human TPK, 500 μM ATP, 30 min, 37 °C. Here is the method:
Methods detailing thiamine pyrophosphokinase 1 (TPK1) enzyme assay development and execution are listed in Supplemental Figure 2 legend.
To determine if the top compounds in the SLC19A2 inhibitor screen (i.e., erythromycin, omeprazole) were substrates of human TPK1, we measured the level of adenosine monophosphate (AMP) generated in a TPK1 enzyme reaction using AMP-Glo™ Assay (Promega).
Luminescence was measured as a proxy for AMP production in human TPK1 reactions exposed to the following compounds: omeprazole 1mM (OME), erythromycin 1mM (ERY), thiamine 1mM (positive control or PC), and no substrate (negative control or NC). Reactions were comprised of 0.5 mL enzyme reaction mixture containing 100 μM MgCl2, 500 μM ATP, pH 7.4, 15 μg of human TPK and 1 mM of tested substrate incubated for 30 min at 37 °C. A negative control reaction was also prepared without added enzyme. Luminescence was measured with a GloMax luminometer (Promega). […] For omeprazole, the signal was not statistically different from the negative control (student’s t-test, p-value = 0.72). Figure representative of 3 independent experiments.

In data set [5] the target is T1, SLC19A2. The data set is described as follows: Predicted risk of SLC19A2-mediated clinical drug-drug interaction (FDA criteria). The arrangement: host or cells: HEK293, stably overexpressing SLC19A2 and transiently transfected with a further 500 ng wild-type plasmid. The following applies: (fu*Cmax)/IC50 > 0.1. The source says:
Clinical pharmacokinetic data from human studies ([13]–[18]) and drug monograph databases (e.g., Micromedex, FDA) were used to obtain Cmax (maximum plasma concentration) and fu (fraction of drug unbound in the plasma).

Data set [6] has as its target T1, SLC19A2. The following applies: IC50 published in literature, ref PMID: 27803021; cited from earlier work.

Like-named read-outs stand apart in the source and are kept apart here.

human TPK1, sequence (Q9H3S4 whole entry): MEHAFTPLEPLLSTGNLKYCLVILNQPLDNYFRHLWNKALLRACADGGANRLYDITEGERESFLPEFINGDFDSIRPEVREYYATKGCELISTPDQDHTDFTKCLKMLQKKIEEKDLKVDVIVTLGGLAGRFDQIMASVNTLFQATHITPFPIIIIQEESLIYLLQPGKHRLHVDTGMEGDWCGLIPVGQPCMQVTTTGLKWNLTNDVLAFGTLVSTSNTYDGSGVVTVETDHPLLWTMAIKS

On to `N=C(N)NC(=O)c1nc(Cl)c(N)nc1N` [Amiloride], for which the fu in data set [1] is recorded as 0.77. Moreover, in data set [2], the peak concentration (Cmax) was 40 nM. Further, the IC50 at SLC19A2 [3] was determined as 69 µM. Also, at SLC19A2 [4], the remaining activity at 1000 µM turned out to be 44.8% and the inhibition at 1000 µM was ≥ 50%.
For `CCCc1ncc(C[n+]2ccccc2C)c(N)n1` [Amprolium], at SLC19A2 [4], the remaining activity at 1000 µM worked out at 29.1% and the inhibition at 1000 µM is ≥ 50%. For the same compound, the “wild-type SLC19A2 thiamine transport activity” value at wild-type SLC19A2 is given as “abolished”.
As to `CCN(CC)CCCC(C)Nc1ccnc2cc(Cl)ccc12` (stereo not drawn) [Chloroquine], the fu in data set [1] was 0.36-0.39. The Cmax in data set [2] is 3.4 nM. The IC50 at SLC19A2 [3] was determined as 301 µM.
Take `CC[C@H]1OC(=O)[C@H](C)[C@@H](O[C@H]2C[C@@](C)(OC)[C@@H](O)[C@H](C)O2)[C@H](C)[C@@H](O[C@@H]2O[C@H](C)C[C@H](N(C)C)[C@H]2O)[C@](C)(O)C[C@@H](C)C(=O)[C@H](C)[C@@H](O)[C@]1(C)O` [Erythromycin]: the “Luminescent signal (AMP production) in TPK1 reaction versus negative control” value at human TPK1 is “significantly higher than the negative control signal”. Besides, the fu in data set [1] is given as 0.1-0.3. The “FDA criteria for clinically relevant transporter inhibition, unbound Cmax/IC50” value at SLC19A2 [5] was “met the FDA’s criteria for clinically relevant transporter inhibition”. Moreover, the Cmax in data set [2] was 2300 to 9600 nM. In addition, the half-maximal inhibitory concentration (IC50) against SLC19A2 [3] came out at 20 µM. For the same compound, at SLC19A2 [4], the remaining activity at 1000 µM was 29.8% and the inhibition at 1000 µM is ≥ 50%.
Consider `COc1c(C)c2c(c(O)c1C/C=C(\C)CCC(=O)OCCN1CCOCC1)C(=O)OC2` [Mycophenolate mofetil], for which the fu in data set [1] is recorded as 0.03 (label). In addition, the highest concentration (Cmax) in data set [2] was < 900 nM. The compound further came in with an IC50 against SLC19A2 [3] of 145 µM. On SLC19A2 [4], the remaining activity at 1000 µM turned out to be 32.8% and the inhibition at 1000 µM is ≥ 50%.
As to `COc1ccc2[nH]c([S+]([O-])Cc3ncc(C)c(OC)c3C)nc2c1` (stereo not drawn) [Omeprazole], at human TPK1, the “Luminescent signal (AMP production) in TPK1 reaction versus negative control” value is “statistically similar to the negative control”. Also, the fu in data set [1] is given as 0.05 (label). For the same compound, the Cmax in data set [2] is 1000 to 10000 nM. The same compound gave an IC50 against SLC19A2 [3] of 207 µM. In addition, at SLC19A2 [4], the remaining activity at 1000 µM came out at 26.6% and the inhibition at 1000 µM is ≥ 50%.
With `COc1ccnc(C[S+]([O-])c2nc3ccc(OC(F)F)cc3[nH]2)c1OC` (stereo not drawn) [Pantoprazole], the fu in data set [1] is 0.02 (label). In data set [2], the Cmax was 6500 nM. Further, on SLC19A2 [3], the IC50 was 429 µM. Further, at SLC19A2 [4], the remaining activity at 1000 µM was 46.5% and the inhibition at 1000 µM was ≥ 50%.
Take `COc1cc(Cc2cnc(N)nc2N)cc(OC)c1OC` [Trimethoprim]: in data set [2], the highest concentration (Cmax) is 3440 nM. The half-inhibitory concentration (IC50) on SLC19A2 [6] is 6.84 µM. Moreover, at SLC19A2 [4], the remaining activity at 1000 µM was 31.7% and the inhibition at 1000 µM is ≥ 50%. Further, the “wild-type SLC19A2 thiamine transport activity” value on wild-type SLC19A2 is recorded as “abolished”.

The Cmax is the maximum level reached in the sampled fluid or tissue. One may read the IC50 as the concentration at which inhibition is half-maximal.
